Assay results as given in ChEMBL document CHEMBL4138191, “Organic arsenicals target thioredoxin reductase followed by oxidative stress and mitochondrial dysfunction resulting in apoptosis” (Eur J Med Chem, 2018).
The source made the active and inactive calls. The rule behind the calls is not given here.

Tests used:
[1] = system: MCF7; test: Cytotoxicity against human MCF7 cells after 48 hrs by MTT assay; format: functional, cell-based; conditions: for IC50: MCF7, 48 h
[2] = system: SGC-7901; test: Cytotoxicity against human SGC7901 cells after 24 hrs by MTT assay; format: functional, cell-based; conditions: for IC50: SGC-7901, 24 h
[3] = system: GES1; test: Cytotoxicity against human GES-1 cells after 24 hrs by MTT assay; format: cell-based; conditions: for IC50: Homo sapiens, GES1, 24 h; for Activity: human, ges1, 24 h
[4] = target: T1, Thioredoxin reductase 1, cytoplasmic (Homo sapiens) (UniProt Q16881); test: Inhibition of TrxR in human HL60 cells using thioredoxin as substrate up to 24 hrs measured for 5 mins by UV-Vis spectrophotometric analysis; format: cell-based
T1 sequence (whole entry): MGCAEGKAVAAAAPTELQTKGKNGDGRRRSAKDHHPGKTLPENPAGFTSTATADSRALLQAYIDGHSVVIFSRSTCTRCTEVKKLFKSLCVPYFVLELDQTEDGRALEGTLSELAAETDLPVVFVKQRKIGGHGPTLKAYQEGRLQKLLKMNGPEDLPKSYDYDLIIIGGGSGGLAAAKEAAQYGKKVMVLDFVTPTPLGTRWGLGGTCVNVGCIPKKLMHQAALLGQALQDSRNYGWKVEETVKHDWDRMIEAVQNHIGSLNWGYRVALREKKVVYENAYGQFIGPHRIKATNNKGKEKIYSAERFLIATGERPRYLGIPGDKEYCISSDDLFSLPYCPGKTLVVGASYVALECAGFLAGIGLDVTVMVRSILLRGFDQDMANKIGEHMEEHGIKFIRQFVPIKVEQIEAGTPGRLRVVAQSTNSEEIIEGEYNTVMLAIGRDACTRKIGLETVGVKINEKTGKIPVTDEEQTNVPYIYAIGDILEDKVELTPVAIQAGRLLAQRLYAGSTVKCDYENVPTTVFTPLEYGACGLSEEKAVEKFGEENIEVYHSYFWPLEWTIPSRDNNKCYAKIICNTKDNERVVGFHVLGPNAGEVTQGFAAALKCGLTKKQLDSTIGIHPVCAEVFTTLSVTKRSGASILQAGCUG

[5] = system: HL-60; test: Induction of ROS generation in human HL60 cells at 1.5 uM after 24 hrs in presence of antioxidant DTT by DCFH-DA staining-based flow cytometry; format: functional, cell-based
[6] = system: HL-60; test: Induction of ROS generation in human HL60 cells at 1.5 uM after 24 hrs by DCFH-DA staining-based flow cytometry; format: functional, cell-based
[7] = system: HL-60; test: Induction of ROS generation in human HL60 cells at 1.5 uM after 24 hrs by DCFH-DA or DHE staining-based fluorescence microscopic analysis; format: functional, cell-based
[8] = system: HL-60; test: Induction of apoptosis in human HL60 cells assessed as necrotic cells at 0.75 to 1.5 uM after 24 hrs by Annexin V-FITC/propidium iodide staining-based flow cytometry; format: functional
[9] = system: HL-60; test: Induction of apoptosis in human HL60 cells assessed as apoptotic cells at 0.75 to 1.5 uM after 24 hrs by Annexin V-FITC/propidium iodide staining-based flow cytometry; format: functional
[10] = system: HL-60; test: Induction of apoptosis in human HL60 cells assessed as nuclear shrinkage at 0.75 to 1.5 uM after 24 hrs by Hoechst 33342 staining-based laser scanning confocal microscopic analysis; format: functional, cell-based
[11] = system: HL-60; test: Induction of apoptosis in human HL60 cells assessed as chromatin condensation at 0.75 to 1.5 uM after 24 hrs by Hoechst 33342 staining-based laser scanning confocal microscopic analysis; format: functional, cell-based
[12] = system: HL-60; test: Induction of apoptosis in human HL60 cells assessed as condensed nuclei at 0.75 to 1.5 uM after 24 hrs by Hoechst 33342 staining-based laser scanning confocal microscopic analysis; format: functional, cell-based
[13] = system: HL-60; test: Induction of apoptosis in human HL60 cells assessed as cell nuclear shrinkage at 0.75 to 1.5 uM after 24 hrs by Hoechst 33342 staining-based laser scanning confocal microscopic analysis; format: functional
[14] = system: HL-60; test: Induction of apoptosis in human HL60 cells assessed as less cell quantity at 0.75 to 1.5 uM after 24 hrs by Hoechst 33342 staining-based laser scanning confocal microscopic analysis; format: functional
[15] = system: HL-60; test: Induction of mitochondrial membrane potential loss in human HL60 cells at 0.75 uM after 24 hrs by JC-1 staining-based flow cytometry (reference value: 24.3%); format: functional
[16] = system: HL-60; test: Induction of mitochondrial membrane potential loss in human HL60 cells at 1.5 uM after 24 hrs by JC-1 staining-based flow cytometry (reference value: 24.3%); format: functional
[17] = system: Liver; test: Induction of mitochondrial dysfunction in Wistar rat liver assessed as swelling up to 30 uM for 60 mins; format: functional; conditions: mitochondria
[18] = system: HL-60; test: Induction of mitochondrial dysfunction in human HL60 cells assessed as increase in intracellular calcium level at 0.75 to 1.5 uM after 4 to 24 hrs by Fluo-3 AM dye-based flow cytometry; format: functional, cell-based
[19] = system: HL-60; test: Induction of cell death in human HL60 cells at 1 to 1.5 uM after 24 hrs in presence of antioxidant L-ascorbic acid by trypan blue assay; format: functional, cell-based
[20] = system: HL-60; test: Induction of cell death in human HL60 cells at 1 to 1.5 uM after 24 hrs in presence of antioxidant vitamin E by trypan blue assay; format: functional, cell-based
[21] = system: HL-60; test: Induction of cell death in human HL60 cells at 1 to 1.5 uM after 24 hrs in presence of antioxidant DTT by trypan blue assay; format: functional, cell-based
[22] = target: T2, Glutathione reductase, mitochondrial (Homo sapiens) (UniProt P00390); test: Effect on glutathione reductase catalytic activity in human HL60 cells; format: cell-based
T2 sequence (whole entry): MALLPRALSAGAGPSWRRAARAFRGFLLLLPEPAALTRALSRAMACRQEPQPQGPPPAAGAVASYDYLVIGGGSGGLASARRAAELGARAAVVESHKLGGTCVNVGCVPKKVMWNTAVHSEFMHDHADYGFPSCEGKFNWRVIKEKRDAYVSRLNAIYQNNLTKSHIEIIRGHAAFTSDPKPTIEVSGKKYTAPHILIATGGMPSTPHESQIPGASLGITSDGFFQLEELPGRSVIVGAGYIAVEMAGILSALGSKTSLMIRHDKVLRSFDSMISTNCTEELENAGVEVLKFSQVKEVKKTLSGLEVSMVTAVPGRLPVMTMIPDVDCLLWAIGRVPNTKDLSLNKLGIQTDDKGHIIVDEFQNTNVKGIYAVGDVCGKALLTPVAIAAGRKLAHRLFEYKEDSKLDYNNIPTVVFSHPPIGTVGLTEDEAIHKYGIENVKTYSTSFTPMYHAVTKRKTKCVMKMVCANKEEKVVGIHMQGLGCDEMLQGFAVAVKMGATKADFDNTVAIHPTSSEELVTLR

[23] = system: HL-60; test: Induction of cell death in human HL60 cells at 0.4 uM after 24 hrs in absence of BSO by MTT assay; format: functional, cell-based
[24] = system: HL-60; test: Induction of cell death in human HL60 cells at 1 to 1.5 uM after 24 hrs in presence of antioxidant lipoic acid by trypan blue assay; format: functional, cell-based
[25] = system: HL-60; test: Induction of mitochondrial membrane potential loss in human HL60 cells at 0.75 uM after 24 hrs by JC-1 staining-based flow cytometry (reference value: 28.6%); format: functional

Structure (SMILES)	Activity [1]	IC50 [1] [µM]	Activity [2]	IC50 [2] [µM]	IC50 [3] [µM]	Activity [3]	inhibition [4]	Activity [5]	Activity [6]	Activity [7]	Activity [8]	Activity [9] [%]	Activity [10]	Activity [11]	Activity [12]	Activity [13]	Activity [14]	Activity [17]	Activity [18]	Activity [19]	other results
Oc1ccccc1/C=N/c1ccc([As]2SCCCS2)cc1	Dose-dependent effect	2.44	Dose-dependent effect	7.69	5.99	Dose-dependent effect	Dose-dependent effect	inactive	Active	Active	<=0.2%	40	Active	Active	Active	Active	Active	Active	Active	Active	Activity [15]: 49.1%; Activity [16]: 71%; Activity [20]: Active; Activity [21]: inactive; Activity [22]: inactive; Activity [23]: Active; Activity [24]: inactive
O=C(Nc1ccc([As]2SCCCS2)cc1)c1ccccc1O	Dose-dependent effect	7.89	Dose-dependent effect	14.5	13.4	Dose-dependent effect	Dose-dependent effect	inactive	Active	Active	<=0.2%	40	Active	Active	Active	Active	Active	Active	Active	Active	Activity [25]: 51.8%; Activity [20]: Active; Activity [21]: inactive; Activity [22]: inactive; Activity [23]: Active; Activity [24]: inactive
